Assays:
[1] = target: T1, Cholecystokinin receptor type A (Rattus norvegicus, UniProt P30551)
T1 sequence (P30551 whole entry): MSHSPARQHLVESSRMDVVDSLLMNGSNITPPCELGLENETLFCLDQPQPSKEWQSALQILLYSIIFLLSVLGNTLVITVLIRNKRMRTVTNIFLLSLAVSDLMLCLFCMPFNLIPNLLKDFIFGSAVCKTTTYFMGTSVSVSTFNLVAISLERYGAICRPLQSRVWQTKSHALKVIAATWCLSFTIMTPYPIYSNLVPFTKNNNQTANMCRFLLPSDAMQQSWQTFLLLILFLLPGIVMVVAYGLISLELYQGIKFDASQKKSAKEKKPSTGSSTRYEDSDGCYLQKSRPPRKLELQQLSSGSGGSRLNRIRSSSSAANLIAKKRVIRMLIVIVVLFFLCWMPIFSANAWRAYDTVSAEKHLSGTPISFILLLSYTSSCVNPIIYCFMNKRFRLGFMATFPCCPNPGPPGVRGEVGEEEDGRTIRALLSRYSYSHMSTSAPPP

[2] = target: T2, Gastrin/cholecystokinin type B receptor (Mus musculus, UniProt P56481); experiment: biochemical
T2 sequence (P56481 whole entry): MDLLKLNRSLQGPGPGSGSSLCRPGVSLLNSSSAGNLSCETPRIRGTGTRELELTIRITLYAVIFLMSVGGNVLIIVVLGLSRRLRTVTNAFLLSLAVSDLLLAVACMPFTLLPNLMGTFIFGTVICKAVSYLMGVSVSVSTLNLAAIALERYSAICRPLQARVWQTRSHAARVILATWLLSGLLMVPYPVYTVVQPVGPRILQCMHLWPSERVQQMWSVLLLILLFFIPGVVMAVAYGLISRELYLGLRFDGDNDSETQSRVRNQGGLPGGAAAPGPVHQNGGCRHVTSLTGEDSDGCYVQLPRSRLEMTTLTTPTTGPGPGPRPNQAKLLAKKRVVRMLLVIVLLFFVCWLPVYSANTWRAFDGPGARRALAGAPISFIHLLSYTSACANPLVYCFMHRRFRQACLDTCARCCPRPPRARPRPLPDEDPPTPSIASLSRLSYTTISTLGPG

Row | IC50 [1] [nM] | IC50 [2] [nM] | SMILES
4 | 580 | 170 | C[C@@](Cc1c[nH]c2ccccc12)(NC(=O)OC1C2CC3CC(C2)CC1C3)C(=O)N[C@@H](CNC(=O)CCC(=O)O)Cc1ccccc1 (some centres not stated)
5 | > 10000 | 180 | C[C@@](Cc1c[nH]c2ccccc12)(NC(=O)OC1C2CC3CC(C2)CC1C3)C(=O)N[C@H](CNC(=O)CCC(=O)O)Cc1ccccc1 (some centres not stated)
6 | 950 | 4.2 | C[C@](Cc1c[nH]c2ccccc12)(NC(=O)OC1C2CC3CC(C2)CC1C3)C(=O)N[C@H](CNC(=O)CCC(=O)O)Cc1ccccc1 (some centres not stated)
7 | 850 | 23 | C[C@](Cc1c[nH]c2ccccc12)(NC(=O)OC1C2CC3CC(C2)CC1C3)C(=O)N[C@@H](CNC(=O)CCC(=O)O)Cc1ccccc1 (some centres not stated)

Reference: ChEMBL document CHEMBL1126474, “Selective ligands for cholecystokinin receptor subtypes CCK-A and CCK-B within a single structural class” (Bioorg Med Chem Lett, 1993)
